In series [1] the test system is skin (inner forearm of each panelist). The experiment in a line: Corneometer measurement of skin moisture after a single application of gel formulation. It counts as in vivo. Particulars: 5 wt % gel, average of eight panelists. As for the experimental part: To prepare a gel formulation, deionized water was added to a 4 oz. tall jar that was set up for mixing using an overhead mixer and a jiffy blade. The water was then mixed at a speed that created a good vortex that nearly reached the bottom of the jar (e.g., about 700 rpm). To this, Carbopol® 940 (cross-linked polyacrylate polymer available from Lubrizol, […], Ohio) was slowly added and mixed for at least 15 minutes until homogeneous. Triethanolamine (TEA) was then added and the mixing speed was adjusted overhead to about 200 rpm and continued mixing for about 10 minutes (e.g., product viscosity increased). To this mixture, 5 wt % of the sample compound in its pure form (or hydroxyethyl urea or glycerol control) was added followed by 0.5 wt % GlydantTM PlusTM (a preservative available from Lonza, Basel, Switzerland) and the remaining, balance water. Mixing was continued at 200 rpm for about 15-20 minutes. The mixture was then removed from the mixer and the final pH was measured. […] Moisture levels were measured using a Corneometer® CM 825 (available from CK Industries) prior to and at various time intervals after the sample application at a temperature of 22° C. and relative humidity of 50%, wherein the corneometer values recorded are the difference between the corneometer reading at a given time and the initial corneometer reading at 0 hours, which is set at zero. […]

Series [2] is described as follows: Dynamic Vapor Sorption (DVS) measurement of water absorption by humectants. It counts as physicochemical. Particulars: for Percentage of water absorbed based on weight of the tested compound: 25° C., equilibrium. As for the experimental part:
Dynamic Vapor Sorption (DVS) technique was used to measure the moisture intake of a specific compound at certain humidity level. A DVS Intrinsic instrument manufactured by Surface Measurement Systems UK Ltd. (London, United Kingdom) was used to measure DVS. The following measurement procedure was used to determine the water vapor absorption of a specific compound.
A uniform aqueous solution of a specific, target compound was made at 50% concentration. About 1.2 to 1.6 mg of the prepared aqueous solution was added to DVS instrument at zero tare balance. The temperature was then set at 25° C., and the measurement was performed at various humidity levels. The first measurement was performed at a humidity of 90% to ensure that the sample absorbs the highest level of water in order to minimize the mass transfer barrier during the evaporation process. The typical humidity measurements were then taken at 50%, 40%, 30%, 20%, 10%, and 0% humidity. The dynamics of water absorption was determined by the weight change per minute. If weight change per minute was less than 0.005% of the sample weight, it was deemed that water absorption had reached the equilibrium point. The equilibrium weight at 0% humidity is the sample weight by itself. Thus, the percentage of equilibrium water absorption at various humidity levels was calculated.
Using the above procedure, DVS was used to evaluate water absorption for DGA Acetamide as compared to hydroxyethyl urea and glycerol at different humidity levels.

In the case of `CC(=O)NCCOCCO` [DGA acetamide, N-acetyl diglycolamine], the “humectance performance (corneometer) versus glycerol” value in series [1] (at 24 hours) is given as “same as glycerol”. Besides, the “corneometer readings versus control (water) formulation” value in series [1] (entire time range tested (24 hours), 22° C., 50% relative humidity) is “superior to the control formulation”. In addition, the “Percentage of water absorbed based on weight of the tested compound” value in series [2] (10% rel. humidity) was found to be 2.6%; in series [2] (20% rel. humidity), 5.9%; in series [2] (30% rel. humidity), 9.9%; in series [2] (40% rel. humidity), 15.3%; in series [2] (50% rel. humidity) it was 26.9%. For the same compound, the “water absorption capability (comparison in words)” value in series [2] (50% relative humidity) is “on par with glycerol”; in series [2] (relative humidity levels of 10%, 20% 30%, and 40%), “on par with that for hydroxyethyl urea”.
For `OCC(O)CO` [Glycerol, glycerol], the “Percentage of water absorbed based on weight of the tested compound” value in series [2] (10% rel. humidity) is 4.6%; in series [2] (20% rel. humidity), 8.6%; in series [2] (30% rel. humidity) it was 15.9%; in series [2] (40% rel. humidity), 23.3%; in series [2] (50% rel. humidity) it was 27.7%.
The corresponding values for `NC(=O)NCCO` [Hydroxyethyl urea, hydroxyethyl urea] are 2.4%, 5.4%, 9.2%, 14.1% and 19.7%.

The record behind these values is patent US11154477B2, “Use of alkanolamine alkylamides as humectants” (Akzo Nobel Chemicals International B.V., priority 2016, dated 2021).
